Source: patent publication US20210106542A1, “COMPOSITION AND METHOD FOR INHIBITING PLATELET AGGREGATION” (priority 2015, published 2021)

Tests used:
thrombin production = assay: Thrombin generation test; type: biochemical, human
Method: Thrombin generation test, a clinical test to determine if a drug impedes blood clotting, was conducted as described below. […] The results are shown in Table 11, below, and in FIG. 5. The RQN combination decreased thrombin in a manner similar to other commonly used anti-platelet drugs, further indicating the safety of the RQN combination.

SAPs = assay: SAP reduction compared to known anti-platelet drugs; type: cell-based, human
Method: SAPs were analyzed in the presence of resveratrol, quercetin, and naltrexone and compared to known anti-platelet drugs. Student's t-test with Turkey Post Hoc correction was used to determine significance levels comparing untreated to drug treated samples. The appropriate doses for other anti-platelet drugs were established by routine clinical use.

[1] = tested on: superactivated platelets (SAPs); assay: SAP inhibition by combinatorial drug treatment (flow cytometry of PRP); type: cell-based, human; settings: 50 μM; PRP 30 minutes at 37° C.; normalized relative to Control
Method: A venipuncture sample of 10 mL of blood is obtained from each patient. Of the 10 mL, a 3 mL aliquot of blood is added to a tube containing 0.5 mL of acid-citrate-dextrose solution (38 mM citric acid, 75 mM sodium citrate, 135 mM glucose) to prevent clotting. […] After centrifuging at 1100 rpm for 10 minutes at room temperature, platelet rich plasma (PRP), which is the upper layer, is removed. The PRP is transferred to a new tube, leaving about 0.5 mL above the buffy coat layer. The PRP-containing tube is incubated with 10 μL of thrombin and convulxin, two agonists that activate the platelets, for five minutes. […] APC-SA recognizes superactivated platelets that more readily bind the biotinylated fibrinogen to their surface. […]
Each sample is analyzed by a Beckman Coulter CyAn flow cytometer (Beckman Coulter, Fullerton, Calif.). Results are analyzed by the Summit program (Beckman Coulter). […] The SAPs are expressed as a percentage of the total number of events in the sample. […]
Aliquots of platelet rich plasma (PRP) were incubated with aqueous saline solutions of resveratrol only, quercetin only, naltrexone only, and with an admixture of resveratrol, quercetin and naltrexone (RQN) for a time period of 30 minutes at 37° C. […] Multi-color immunofluorescence was noted, and analyzed as described in Example 1, above.

[2] = tested on: control subject platelets; assay: SAP levels at varying doses of R, Q, N alone or in combination, control subject; type: cell-based, human; settings: control patient
Method: (§1) Resveratrol, quercetin and naltrexone were tested in vitro using 100-microliter assay solutions with (A) a control subject platelets and (B) a POAG subject platelets. A marked reduction in SAPs at 1 μM resveratrol, 1 μM quercetin, 1 μM naltrexone in both the control subject platelets and the POAG patient's platelets was observed, representing a synergistic decrease as compared to the compounds alone.

POAG subject platelets = assay: SAP levels at varying doses of R, Q, N alone or in combination, POAG subject; type: cell-based, human; settings: POAG patient
Method: as §1

[3] = cited from earlier work; for Bioavailability: literature reference

Which “Thrombin % Decrease” value (thrombin production; 100 μM, Alzheimer's (n = 6)) does the source give for `CC(=O)Oc1ccccc1C(=O)O` [Aspirin] here?
Its value is −75.46%.

What about the “Thrombin % Decrease” value (thrombin production; 100 μM, Control (n = 6)) of the same compound?
Its value is −76.05%.

What about the “Thrombin % Decrease” value (thrombin production; 100 μM, POAG (n = 6)) of the same compound?
Its value is −104.39%.

What about the “SAP % Decrease” value (SAPs; 100 μM, Alzheimer's (n = 6)) of the same compound?
The value was −17.32%.

And the “SAP % Decrease” value (SAPs; 100 μM, Control (n = 6))?
The value was −17.00%.

And the “SAP % Decrease” value (SAPs; 100 μM, POAG (n = 6))?
Its value is −26.69%.

With `CC(C)Cc1ccc(C(C)C(=O)O)cc1` (stereo not drawn) [Ibuprofen] as the compound, how does the “Thrombin % Decrease” value (thrombin production; 100 μM, Alzheimer's (n = 6)) read?
Its value is −95.08%.

What about the “Thrombin % Decrease” value (thrombin production; 100 μM, Control (n = 6)) of the same compound?
Its value is −106.45%.

And the “Thrombin % Decrease” value (thrombin production; 100 μM, POAG (n = 6))?
Its value is −101.37%.

What about the “SAP % Decrease” value (SAPs; 100 μM, Alzheimer's (n = 6)) of the same compound?
Its value is −15.30%.

And the “SAP % Decrease” value (SAPs; 100 μM, Control (n = 6))?
The value was −31.40%.

What about the “SAP % Decrease” value (SAPs; 100 μM, POAG (n = 6)) of the same compound?
Its value is −16.84%.

Which “% Reduction in SAPs” value [1] does the source give for `O=C1CC[C@@]2(O)[C@H]3Cc4ccc(O)c5c4[C@@]2(CCN3CC2CC2)[C@H]1O5` [Naltrexone, 17-(cyclopropylmethyl)-4,5α-epoxy-3,14-dihydroxymorphinan-6-one] here?
Its value is 52.2%.

What about the “% SAPs” value [1] of the same compound?
Its value is 47.8%.

What about the SAP % ([2]; R/Q/N 0/0/1 uM) of the same compound?
Its SAP % is 30.80%.

And the “SAP % Change” value ([2]; R/Q/N 0/0/1 uM)?
The value was −15.13%.

And the SAP % ([2]; R/Q/N 0/0/10 uM)?
The SAP % was 20.77%.

What about the “SAP % Change” value ([2]; R/Q/N 0/0/10 uM) of the same compound?
Its value is −42.77%.

And the SAP % ([2]; R/Q/N 0/0/50 uM)?
The SAP % was 18.03%.

What about the “SAP % Change” value ([2]; R/Q/N 0/0/50 uM) of the same compound?
Its value is −50.32%.

And the SAP % (POAG subject platelets; R/Q/N 0/0/1 uM)?
The SAP % was 44.27%.

What about the “SAP % Change” value (POAG subject platelets; R/Q/N 0/0/1 uM) of the same compound?
The value was −22.17%.

What about the SAP % (POAG subject platelets; R/Q/N 0/0/10 uM) of the same compound?
The SAP % was 40.84%.

And the “SAP % Change” value (POAG subject platelets; R/Q/N 0/0/10 uM)?
The value was −28.20%.

And the SAP % (POAG subject platelets; R/Q/N 0/0/50 uM)?
The SAP % was 38.93%.

What about the “SAP % Change” value (POAG subject platelets; R/Q/N 0/0/50 uM) of the same compound?
Its value is −31.56%.

And the Bioavailability [3]?
Its Bioavailability is 33%^3.

With `O=c1c(O)c(-c2ccc(O)c(O)c2)oc2cc(O)cc(O)c12` [Quercetin, 3,3′,4′5,7-pentahydroxy-2-phenylchromen-4-one] as the compound, how does the SAP % ([2]; R/Q/N 0/1/0 uM) read?
The SAP % was 30.36%.

And the “SAP % Change” value ([2]; R/Q/N 0/1/0 uM)?
The value was −16.34%.

And the SAP % ([2]; R/Q/N 0/5/0 uM)?
The SAP % was 30.53%.

And the “SAP % Change” value ([2]; R/Q/N 0/5/0 uM)?
The value was −15.87%.

And the SAP % ([2]; R/Q/N 0/10/0 uM)?
The SAP % was 21.47%.

What about the “SAP % Change” value ([2]; R/Q/N 0/10/0 uM) of the same compound?
Its value is −40.84%.

What about the SAP % (POAG subject platelets; R/Q/N 0/1/0 uM) of the same compound?
The SAP % was 49.18%.

And the “SAP % Change” value (POAG subject platelets; R/Q/N 0/1/0 uM)?
Its value is −13.54%.

What about the SAP % (POAG subject platelets; R/Q/N 0/5/0 uM) of the same compound?
The SAP % was 48.25%.

What about the “SAP % Change” value (POAG subject platelets; R/Q/N 0/5/0 uM) of the same compound?
Its value is −15.17%.

What about the SAP % (POAG subject platelets; R/Q/N 0/10/0 uM) of the same compound?
Its SAP % is 43.27%.

What about the “SAP % Change” value (POAG subject platelets; R/Q/N 0/10/0 uM) of the same compound?
The value was −23.93%.

What about the Bioavailability [3] of the same compound?
Its Bioavailability is 11%^2.

Which results are given for `Oc1ccc(/C=C/c2cc(O)cc(O)c2)cc1` [Resveratrol, 3,5,4′-trihydroxy-trans-stilbene]?
SAP % ([2]; R/Q/N 1/0/0 uM): 32.20%; SAP % Change ([2]; R/Q/N 1/0/0 uM): −11.27%; SAP % ([2]; R/Q/N 5/0/0 uM): 30.98%; SAP % Change ([2]; R/Q/N 5/0/0 uM): −14.63%; SAP % ([2]; R/Q/N 10/0/0 uM): 30.24%; SAP % Change ([2]; R/Q/N 10/0/0 uM): −16.67%; SAP % (POAG subject platelets; R/Q/N 1/0/0 uM): 53.30%; SAP % Change (POAG subject platelets; R/Q/N 1/0/0 uM): −6.29%; SAP % (POAG subject platelets; R/Q/N 5/0/0 uM): 53.78%; SAP % Change (POAG subject platelets; R/Q/N 5/0/0 uM): −5.45%; SAP % (POAG subject platelets; R/Q/N 10/0/0 uM): 43.53%; SAP % Change (POAG subject platelets; R/Q/N 10/0/0 uM): −23.47%; Half-life ([3]; in vivo): 1 to 3 h; Bioavailability [3]: 5%^1

With `O=C(NC[C@H]1CN(c2ccc(N3CCOCC3=O)cc2)C(=O)O1)c1ccc(Cl)s1` [Rivaroxaban] as the compound, how does the “Thrombin % Decrease” value (thrombin production; 1 μM, Alzheimer's (n = 6)) read?
Its value is −186.56%.

And the “Thrombin % Decrease” value (thrombin production; 1 μM, Control (n = 6))?
Its value is −183.06%.

What about the “Thrombin % Decrease” value (thrombin production; 1 μM, POAG (n = 6)) of the same compound?
The value was −184.65%.

And the “SAP % Decrease” value (SAPs; 1 μM, Alzheimer's (n = 6))?
The value was −15.63%.

And the “SAP % Decrease” value (SAPs; 1 μM, Control (n = 6))?
The value was −23.38%.

And the “SAP % Decrease” value (SAPs; 1 μM, POAG (n = 6))?
Its value is −48.73%.

With Dabigatran as the compound, how does the “Thrombin % Decrease” value (thrombin production; 100 μM, Alzheimer's (n = 6)) read?
The value was −109.55%.

And the “Thrombin % Decrease” value (thrombin production; 100 μM, Control (n = 6))?
Its value is −101.97%.

What about the “Thrombin % Decrease” value (thrombin production; 100 μM, POAG (n = 6)) of the same compound?
The value was −100.45%.

And the “SAP % Decrease” value (SAPs; 100 μM, Alzheimer's (n = 6))?
The value was −8.09%.

And the “SAP % Decrease” value (SAPs; 100 μM, Control (n = 6))?
The value was −0.16%.

And the “SAP % Decrease” value (SAPs; 100 μM, POAG (n = 6))?
Its value is −11.21%.
